Series [1] concerns primary rat microglia.
For series [2], the system named is fibrin- and LPS-induced microglia activation. In words: cells. It is filed as cell-based, rat.
Series [3] has as its system LPS-induced microglia activation. In words: Image-based assay of LPS-induced microglia activation (HTS and dose response). The conditions noted are these: for inhibition at 10 µM: Rattus norvegicus, Microglia, read-out: LPS % inhibition. It is filed as cell-based, rat.
In series [4] the test system is fibrin-induced microglia activation. In words: Image-based assay of fibrin-induced microglia activation (HTS and dose response). It is filed as cell-based, rat. The following applies: primary microglia HTS, fibrin stimulation; for inhibition at 10 µM: Rattus norvegicus, Microglia, read-out: Fibrin % inhibition.
Series [5] deals with primary rat microglia. In words: Cell toxicity (dead cells, size <150 μm2) in coated fibrin (cFib) assay.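 Also: share of dead cells sized under 150 µm2 at 10 µM in fibrin-stimulated microglia HTS.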 The conditions noted are these: primary microglia HTS.
The mark [6] stands for this setting: classification by fibrin and LPS inhibition, HTS at 10 μM.
[7] abbreviates: primary microglia HTS, LPS stimulation, compounds at 10 μM.
[8] abbreviates: fibrin assay, dead cells (size <150 μm2), compounds at 10 μM.
The mark [9] stands for this setting: quadrant by fibrin and LPS inhibition, HTS at 10 μM.
Where [10] appears, read: fibrin assay, dead cells (size <150 μm2).
The mark [11] stands for this setting: classification by fibrin and LPS inhibition in HTS.
Setting [12] is: cell size >800 μm2 as marker of activation.
Setting [13] is: fibrin stimulation, cell size <150 μm2 as marker of toxicity.

SMILES strings stand for the structures. Where “and” joins values, the source holds several entries; their conditions need not be identical. Equal entries are not always repeated. Structures can show the parent of a compound that is named as a salt. Where two headings read alike, the source gives them in different places.

`C[C@]12CC[C@@H]3c4ccc(OC(=O)c5ccccc5)cc4CC[C@H]3[C@@H]1CC[C@@H]2O` [Estradiol Benzoate]: the “LPS % cell toxicity” value in series [1] (rat) was determined as 0%. Further, in series [2] (setting [6]), the “Quadrant (FIG. 5b)” value is on record as “Q4”. In addition, the inhibition at 10 µM in series [3] (setting [7]) was 8%; in series [4] (compounds at 10 μM), -3%. In addition, the “Fibrin % cell toxicity” value in series [5] (setting [8]) is reported as 1%.

With `CCC1(C)CC(=O)NC1=O` (stereo not shown) [Ethosuximide], in series [1] (rat), the “LPS % cell toxicity” value is listed as 0%. In addition, the “Quadrant (FIG. 5b)” value in series [2] (setting [6]) is given as “Q4”. Besides, the inhibition at 10 µM in series [3] (setting [7]) was 19%; in series [4] (compounds at 10 μM), -9%. For the same compound, the “Fibrin % cell toxicity” value in series [5] (setting [8]) is on record as 0%.

Turning to `CC(=O)Oc1ccccc1C(=O)O` [Acetylsalicylic acid], in series [1] (rat), the “LPS % cell toxicity” value came to 0%. Besides, the “Quadrant (FIG. 5b)” value in series [2] (setting [9]) is given as “Q4”. Also, the inhibition at 10 µM is 17% in series [3] (setting [7]) and -21% in series [4] (compounds at 10 μM). The “Fibrin % cell toxicity” value in series [5] (setting [10]) is listed as 1%.

For the compound `COc1ccc2c(c1)[C@]13CCCC[C@@H]1[C@H](C2)N(C)CC3` [Dextromethorphan], the “LPS % cell toxicity” value in series [1] (rat) is reported as 0%. Besides, the “Quadrant (FIG. 5b)” value in series [2] (setting [6]) was “Q4”. Further, in series [3] (primary microglia HTS, LPS stimulation, compounds at 10 μM, 10 µM), the LPS % inhibition was 4% and −5%. In addition, the Fibrin % inhibition in series [4] (compounds at 10 μM, 10 µM) is −18% and −20%. Further, the “Fibrin % cell toxicity” value in series [5] (setting [8]) came to 1%.

On to `CN[C@@H]1[C@H](O[C@H]2[C@H](O[C@H]3[C@H](O)[C@@H](O)[C@H](NC(=N)N)[C@@H](O)[C@@H]3NC(=N)N)O[C@@H](C)[C@]2(O)CO)O[C@@H](CO)[C@H](O)[C@H]1O` [Dihydrostreptomycin Sulfate], for which the “LPS % cell toxicity” value in series [1] (rat) is listed as 0%. In series [2] (setting [6]), the “Quadrant (FIG. 5b)” value is recorded as “Q4”. Also, the inhibition at 10 µM in series [3] (setting [7]) is 12%; in series [4] (compounds at 10 μM) it was -7%. Further, in series [5] (setting [8]), the “Fibrin % cell toxicity” value turned out to be 1%.

In the case of `O=C(O)CCCO` [Sodium Oxybate], the “LPS % cell toxicity” value in series [1] (rat) is 0%. In series [2] (setting [11]), the “Quadrant (FIG. 5b)” value is reported as “Q4”. The inhibition at 10 µM was 34% in series [3] (48 h) and -5% in series [4] (setting [12]). Besides, the “Fibrin % cell toxicity” value in series [5] (setting [13]) came out at 1%.

With `C=CC1=C(C)c2cc3[nH]c(cc4nc(cc5[nH]c(cc1n2)c(C)c5CCC(=O)O)C(CCC(=O)O)=C4C)c(C)c3C=C` [Protoporphyrin Ix], the “LPS % cell toxicity” value in series [1] (rat) came to 0%. For the same compound, in series [2] (setting [11]), the “Quadrant (FIG. 5b)” value is “Q4”. Besides, the inhibition at 10 µM in series [3] (48 h) is 2%; in series [4] (setting [12]) it was -70%. The “Fibrin % cell toxicity” value in series [5] (setting [13]) was 1%.

In the case of `CCC1(CC)C(=O)C=CNC1=O` [Pyrithyldione], in series [1] (rat), the “LPS % cell toxicity” value was found to be 0%. For the same compound, the “Quadrant (FIG. 5b)” value in series [2] (setting [11]) is listed as “Q4”. In addition, the inhibition at 10 µM was 9% in series [3] (48 h) and -24% in series [4] (setting [12]). Further, in series [5] (setting [13]), the “Fibrin % cell toxicity” value stood at 1%.

As for `CCOP(=S)(OCC)Oc1cc(C)nc(C(C)C)n1` [Diazinon, Dimpylate], the “LPS % cell toxicity” value in series [1] is 0%. Besides, the “Quadrant (FIG. 5b)” value in series [2] (setting [6]) is given as “Q4”. For the same compound, in series [3] (setting [7]), the LPS % inhibition is given as −8%. Further, the Fibrin % inhibition in series [4] (compounds at 10 μM) is recorded as −7%. Also, the “Fibrin % cell toxicity” value in series [5] (setting [8]) was 1%.

Turning to `CCCCCCCCCC(=O)N[C@@H](Cc1c[nH]c2ccccc12)C(=O)N[C@@H](CC(N)=O)C(=O)N[C@@H](CC(=O)O)C(=O)N[C@@H]1C(=O)NCC(=O)N[C@@H](CCCN)C(=O)N[C@@H](CC(=O)O)C(=O)N[C@H](C)C(=O)N[C@@H](CC(=O)O)C(=O)NCC(=O)N[C@H](CO)C(=O)N[C@@H]([C@H](C)CC(=O)O)C(=O)N[C@@H](CC(=O)c2ccccc2N)C(=O)O[C@@H]1C` [Daptomycin (5 Millimolar/dmso)], in series [1], the “LPS % cell toxicity” value was 0%. The “Quadrant (FIG. 5b)” value in series [2] (setting [6]) is recorded as “Q4”. In addition, the LPS % inhibition in series [3] (setting [7]) is 17%. For the same compound, in series [4] (compounds at 10 μM), the Fibrin % inhibition is given as −6%. The “Fibrin % cell toxicity” value in series [5] (setting [8]) stood at 1%.

As to `Cc1nnc2n1-c1ccc(Cl)cc1C(c1ccccc1)=NC2` [Alprazolam], the “LPS % cell toxicity” value in series [1] (rat) was 0%. The “Quadrant (FIG. 5b)” value in series [2] (setting [9]) is listed as “Q4”. In addition, the inhibition at 10 µM came out at 20% in series [3] (setting [7]) and 33% in series [4] (compounds at 10 μM). Besides, the “Fibrin % cell toxicity” value in series [5] (setting [10]) is reported as 1%.

As a reminder, the inhibition is the change of the read-out against control, counted positive when it falls.

The values above are taken from patent US20210330611A1, “THERAPY FOR NEUROLOGICAL DISEASES/DISORDERS” (priority 2020, published 2021).
